Measured values taken from patent US20220031690A1, “ANTI-NEURODEGENERATIVE DISEASE AGENT” (Hayashibara Co., Ltd., priority 2018, published 2022).

What was measured:
PC12-HS cells [1] = experiment: Evaluation method A: neurocyte growth acceleration activity (Alamar blue); assay type: cell-based, rat; settings: for Cell proliferation rate (%): negative control = 100%; for neurocyte growth acceleration activity (in words): 40, 200 and 1,000 nM, comment on Table 2; for Action on PC12-HS growth acceleration (50 ng/ml): 3 days culture, class of cell proliferation rate vs negative control = 100%
Source text: (§1) As a model of the nerve cell, the NGF (nerve growth factor) highly sensitive strain of PC12 cell derived from the rat adrenal pheochromocytoma (hereinafter referred to as “PC12-HS cell”; JCRB cell bank, National Research and Development Institute of Health and Nutrition), which has been widely used as a suitable model for research on human neurodegenerative disease, was used. As the test compound, […] of trimethine cyanine dye compounds; NK-5 (Chemical formula 2), NK-36 (Chemical formula 3), NK-44 (Chemical formula 5) and dye compounds represented by Chemical formulae 12 to 18, and NK-6 (Chemical formula 7), which is a monomethine cyanine dye, were selected. In addition, two kinds of ethylene cross-linked dyes (Chemical formulae 19 and 20), 15 kinds of monomethine cyanine dyes (Chemical formulae 21 to 35), and seven kinds of trimethine cyanine dyes (Chemical formulae 36 to 42), which were expected to have a good neurocyte growth acceleration activity and/or neurite-outgrowth promoting activity in the screening disclosed in Patent literature 6, were also re-evaluated for comparison. The Chemical formulae 12 to 42 are shown below.
(§2) The cyanine dye compounds subjected to the test (purity 97% by mass or more, synthesized by Hayashibara Co., Ltd., Okayama, Japan) were individually dissolved in DMSO (product number “D8418”, commercialized by SIGMA Corporation) at a concentration of 5 mg/ml, and the solutions were then filtered through DMSO-resistant membrane (“Millex-LGS LLG025SS”, commercialized by Millipore Corporation) and stored at 25° C. in a dark condition. At the time of use, they were further diluted with Dulbecco's Medium (hereinafter, abbreviated as “D-MEM medium”, commercialized by Nissui Pharmaceutical Co., Ltd.) supplemented by 10% by volume of fetal bovine serum (FBS), and subjected to the test.
PC12-HS cells were subjected to tests after frozen stock cultured cells were thawed and cultured with a D-MEM medium supplemented with 10% by volume of FBS (Hereinafter, when the term “culture” is simply used, it means that the cells are statically cultured in an incubator controlled at 37° C. under 5% by volume of CO2 conditions). Cells used in the test were collected using 0.25% by weight of trypsin solution, then diluted with a D-MEM medium supplemented with 10% by volume of FBS (hereinafter referred to as “culture medium”), seeded into collagen-coated 96-well plates (commercialized by Falcon, Tokyo, Japan, “Microtest Plate, Cell Culture, Flat Bottom”) to obtain 5×10^3 cells/100 μl/well, and cultured for 24 hours (hereinafter referred to as “pre-culture”). Then, the above test samples were diluted with a culture medium, and 100 μl of diluted solution of the test compounds were added to each well so that the final concentration of the test compounds in the wells became 50 ng/ml, and the cells were cultured for another three days. On day 3, the cultures supernatant was removed from each well, 200 μl of culture medium containing 10% by volume of Alamar blue reagents (commercialized by Trek Diagnostic Systems Inc., Ohio, USA) were added to each well, and the cells were cultured for 6 hours. After culturing for 6 hours, the cells were measured for fluorescent intensity at a wavelength of 544-590 nm by “FlexStation 3”, a product name of a fluorescent plate reader (commercialized by Japan Molecular Devices Corporation, Tokyo, Japan). […] Measurements were performed for each test compound in triplicate, and the mean values were shown.
The method was based on Experiment 1-1, except the concentrations of the test compounds were set to three doses of 40 nM, 200 nM and 1,000 nM for evaluation method A (neurocyte growth accelerating effect), and two doses of 200 nM and 1,000 nM for evaluation method B (neurite outgrowth promoting effect). […]

PC12-HS cells [2] = experiment: Evaluation method B: neurite-outgrowth promoting activity in the presence of NGF; assay type: cell-based, rat; settings: for Neurite-outgrowth rate (%) / Action on PC12-HS neurite-outgrowth promotion (500 ng/ml): NGF 10 ng/ml; for Action on PC12-HS neurite-outgrowth promotion (500 ng/ml): 3 days, class of neurite-outgrowth rate; for neurite-outgrowth promoting activity (in words): 200 and 1,000 nM, comment on Table 2
Source text: as §1, §2
As in the case of evaluation of neurocyte growth accelerating activity (Evaluation method A), 50 μl/well of each test compound solution, prepared by diluting with the culture medium to give a final concentration of 500 ng/ml, and the culture medium containing 20 ng/ml of mouse NGF (mouse derived, final concentration 10 ng/ml, commercialized by Chemicon International, Inc., CA, USA) (50 μl/well) were added to the precultured PC12-HS cells in each well, and then cultured for three days. Culture medium was removed on day 3 of culture, and cells were fixed by adding 100 μl/well of 10% by volume of glutaraldehyde and standing for 20 minutes at room temperature. As a negative control, PC12-HS cells, cultured for three days with culture medium, were fixed with glutaraldehyde similarly as above. Fixed cells were observed under a microscope to assess the neurite-outgrowth. The neurite-outgrowth rate (%) was determined by observing the cells using a microscope by adjusting the magnitude to give about 100 cells in one visual field, counting the number of cells having neurites twice or more in length of the cell body (major axis), dividing by the total number of cells in the same visual field, and multiplying by 100. Measurements were carried out at three points for each test compound. […] In this experiment, the neurite-outgrowth rate was 5% or less when NGF was added (final concentration 10 ng/ml) without the addition of the test compound.
The method was based on Experiment 1-1, except the concentrations of the test compounds were set to three doses of 40 nM, 200 nM and 1,000 nM for evaluation method A (neurocyte growth accelerating effect), and two doses of 200 nM and 1,000 nM for evaluation method B (neurite outgrowth promoting effect). Measurements were performed in triplicate for each concentration of each test compound in both evaluation methods A and B. The result of the evaluation method A was expressed as a cell proliferation rate (%) by determined a relative percentage (%) when the value of the negative control to which the test compound was not added, was regarded as 100%. […]

[3] = DPPH radical scavenging ability (absorbance method); assay type: biochemical; settings: ethanol, room temperature, 2 hours, absorbance at 490 nm
Source text: 2,2-Diphenyl-1-picrylhydrazyl (hereinafter referred to as “DPPH”) is a radical with an unpaired electron and has the oxidizing ability of other substances. In addition, because it is stable and easy to handle, it is widely used as an artificial radical-like substance for measuring the antioxidant ability of antioxidants. When DPPH reacts with a substance having antioxidant ability, it loses its own oxidizing ability and its color changes from deep purple to […].
DPPH (commercialized by Tokyo Kasei Kogyo Co., Ltd., Tokyo, Japan) was dissolved in ethanol to prepare a 167 μM DPPH ethanol solution, and 90 μl of the solution was added to each well of the 96-well microplate. A 60 μl each of the test compound serially diluted with ethanol was added to the DPPH ethanol solution, and the mixture was reacted at room temperature for 2 hours, and then the absorbance at 490 nm was measured. […] From those value, the 50% inhibitory concentration of the DPPH radical (Hereinafter, it is referred to as “IC50”) was calculated.

Row | Compound | Cell proliferation rate (%) (PC12-HS cells [1]; 1.000 nM) | Cell proliferation rate (%) (PC12-HS cells [1]; 40 nM) | Cell proliferation rate (%) (PC12-HS cells [1]; 200 nM) | neurocyte growth acceleration activity (in words) (PC12-HS cells [1]) | Neurite-outgrowth rate (%) (PC12-HS cells [2]; 1.000 nM) | Neurite-outgrowth rate (%) (PC12-HS cells [2]; 200 nM) | Action on PC12-HS neurite-outgrowth promotion (500 ng/ml) (PC12-HS cells [2]) | neurite-outgrowth promoting activity (in words) (PC12-HS cells [2]) | IC50 [3] [mM] | Action on PC12-HS growth acceleration (50 ng/ml) (PC12-HS cells [1])
1 | COC1C=CC=CC1=CC=CC1=[N+](C)c2ccc3ccccc3c2C1(C)C.Cc1ccc(S(=O)(=O)[O-])cc1 (stereo not shown) [NK-10214] | 103.3 | 109.3 | 123.1 | slightly weaker activity than NK-6 and NK-36 | 48.8 | 23.6 | ⊚ (45% or more was judged to be more potent than NK-4 (“double circle”)) | stronger neurite-outgrowth promoting activity than NK-4 | – | –
2 | CCn1ccc(=O)c2ccccc21 [NKX-4076] | – | – | – | – | – | – | – | – | ≥ 10 | –
3 | O=S(=O)([O-])CCCN1CCSC1=CC=CC1=[N+](CCCS(=O)(=O)[O-])CCS1.[Na+] [NK-3134] | 122.8 | 103.9 | 119.6 | slightly weaker activity than NK-6 and NK-36 | 18.2 | 29.4 | – | almost equivalent neurite-outgrowth promoting rate to NK-4 | – | ◯ (the relative value of 130% to 169% was judged to be equivalent to NK-4 (“circle”))
4 | CN(C)c1ccc(C=Cc2oc3ccccc3[n+]2C)cc1.[I-] [NK-528] | – | – | – | – | – | – | ◯ (When the mean neurite-outgrowth rate was 25 to 44%, it was judged to be equivalent to the positive control NK-4 (“circle”)) | – | – | ◯ (the relative value of 130% to 169% was judged to be equivalent to NK-4 (“circle”))
